Data on 59 compounds can be found in patent US7902225B2, “Mycobacterial inhibitors” (Janssen Pharmaceutica NV, priority 2005, dated 2011).

One test concerns M. Smegmatis ATCC607. In words: In-vitro anti-bacterial activity against strain M. smegmatis ATCC607 (growth inhibition, Alamar Blue fluorescence). Particulars: 48 hours at 37° C. It counts as cell-based. As to the method: D.2. In-vitro Method for Testing Compounds for Anti-bacterial Activity Against Strain M. Smegmatis ATCC607. Flat-bottom, sterile 96well plastic microtiter plates were filled with 180 μl of sterile deionized water, supplemented with 0.25% BSA. Subsequently, stock solutions (7.8× final test concentration) of compounds were added in 45 μl volumes to a series of duplicate wells in column 2 so as to allow evaluation of their effects on bacterial growth. Serial five-fold dilutions (45 μl in 180 μl) were made directly in the microtiter plates from column 2 to 11 using a customised robot system (Zymark Corp., Hopkinton, Mass.). Pipette tips were changed after every 3 dilutions to minimize pipetting errors with high hydrophobic compounds. Untreated control samples with (column 1) and without (column 12) inoculum were included in each microtiter plate. Approximately 250 CFU per well of bacteria inoculum, in a volume of 100 μl in 2.8× Mueller-Hinton broth medium, was added to the rows […]. The same volume of broth medium without inoculum was added to column 12 in row A to H. The cultures were incubated at 37° C. for 48 hours in a humidified 5% CO2 atmosphere (incubator with open air valve and continuous ventilation). At the end of incubation, two days after inoculation, the bacterial growth was quantitated fluorometrically. Therefore Alamar Blue (10×) was added to all wells in a volume of 20 μl and plates were incubated for another 2 hours at […] The fluorescence was read in a computer-controlled fluorometer (Cytofluor, Biosearch) at an excitation wavelength of 530 nm and an emission wavelength of 590 nm (gain 30). The % growth inhibition achieved by the compounds was calculated according to standard methods. The pIC50 was defined as the 50% inhibitory concentration for bacterial growth.
Turning to `COc1cc(-c2ccccc2)c2cc(C(O)(CCN(C)C)c3ccccc3)ccc2n1` (centres unmarked) [Compound 27], the “M. smegmatis (pIC50)” value is recorded as 5.2.
Same read-out and setting: for `COc1nc2cccc(C(O)(CCN(C)C)c3c(F)cccc3F)c2cc1-c1ccccc1` (centres unmarked) [Compound 28] the value was 5.1.
As to `CN(C)CCC(O)(c1cccc2ccccc12)c1cc(Br)cc2cc(Cc3ccccc3)c(N3CCN(Cc4ccc5c(c4)OCO5)CC3)nc12` (centres unmarked) [Compound 45], the “M. smegmatis (pIC50)” value is recorded as 6.6.
`CN(C)CCC(O)(c1cccc2ccccc12)c1cc(Br)cc2cc(Cc3ccccc3)c(-n3ccnc3)nc12` (centres unmarked) [Compound 46]: the “M. smegmatis (pIC50)” value came out at 6.6.
As for `CN(C)CCC(O)(c1cccc2ccccc12)c1cc(Br)cc2cc(Cc3ccccc3)c(N3CCN(O)CC3)nc12` (centres unmarked) [Compound 49], the “M. smegmatis (pIC50)” value was found to be 6.1.
Same read-out and setting: for `CN(C)CCC(O)(c1cccc2ccccc12)c1cc(Br)cc2cc(-c3ccccc3)c(-n3cncn3)nc12` (centres unmarked) [Compound 56] the value was 5.8.
Turning to `CN(C)CCC(O)(c1cccc2ccccc12)c1cc(Br)cc2cc(Cc3ccccc3)c(N(C)C)nc12` (centres unmarked) [Compound 57], the “M. smegmatis (pIC50)” value was 5.8.
Turning to `CN(C)CCC(O)(c1ccccc1)c1cc2nc(N3CCCC3)c(Cc3ccccc3)cc2cc1Br` (centres unmarked) [Compound 58], the “M. smegmatis (pIC50)” value is given as 5.8.
Regarding `CN(C)CCC(O)(c1ccccc1)c1cc(Br)cc2cc(Cc3ccccc3)c(-n3ccnc3)nc12` (centres unmarked) [Compound 59], the “M. smegmatis (pIC50)” value came to 5.8.
For `CN(C)CCC(O)(c1ccccc1)c1cc2nc(N3CCN(C)CC3)c(Cc3ccccc3)cc2cc1Br` (centres unmarked) [Compound 61], the “M. smegmatis (pIC50)” value was 5.3.
With `CN(C)CCC(O)(c1ccccc1)c1cc(Br)cc2cc(Cc3ccccc3)c(-n3cncn3)nc12` (centres unmarked) [Compound 62], the “M. smegmatis (pIC50)” value is listed as 5.3.
Same read-out and setting: for `CN(C)CCC(O)(c1cccc2ccccc12)c1cc(Br)cc2cc(Cc3ccccc3)c(N3CCC(Cc4ccccc4)CC3)nc12` (centres unmarked) [Compound 64] the value was 5.2.
`CN(C)CCC(O)(c1ccccc1)c1cc(Br)cc2cc(Cc3ccccc3)c(-n3ccnn3)nc12` (centres unmarked) [Compound 65]: the “M. smegmatis (pIC50)” value is given as 5.2.

The test is the same for the next values; noted with them: Mycolicibacterium smegmatis, 48 hours at 37° C., read-out: M. smegmatis (pIC50) (converted).
Regarding `COc1nc2cccc(C(O)(CCN(C)C)c3cc(F)cc(F)c3)c2cc1-c1ccccc1` (centres unmarked) [Compound 1], the IC50 is 1.26 µM.
In the case of `COc1nc2ccc(C(O)(CCN(C)C)c3cc(F)cc(F)c3)cc2cc1Cc1ccc(C)cc1` (centres unmarked) [Compound 2], the IC50 was 1.26 µM.
As to `CN(C)CCC(O)(Cc1c(Cc2ccccc2)c(N2CCCC2)nc2ccccc12)c1cc(F)cc(F)c1` (centres unmarked) [Compound 4], the IC50 is 0.251 µM.
`Cc1cc(-c2ccccc2)c2cc(C(O)(CCN(C)C)c3ccco3)ccc2n1` (centres unmarked) [Compound 6]: the IC50 is 31.6 µM.
Turning to `CN(C)CCC(O)(c1cc(F)cc(F)c1)c1ccc2nc(-c3cccnc3)cc(-c3ccccc3)c2c1` (centres unmarked) [Compound 8], the IC50 was 1.58 µM.
As to `CN(C)CCC(O)(c1cc(F)cc(F)c1)c1cccc2nc(N(C)C)c(-c3ccccc3)cc12` (centres unmarked) [Compound 10], the IC50 is 2 µM.
As to `COc1nc2c(C(O)(CCN(C)C)c3cc(F)cc(F)c3)cc(Br)cc2cc1-c1ccccc1` (centres unmarked) [Compound 12], the IC50 is 1.58 µM.
On to `COc1nc2c(C(O)(CCN(C)C)c3cc(F)cc(F)c3)cc(-c3cccnc3)cc2cc1-c1ccccc1` (centres unmarked) [Compound 13], for which the IC50 was 0.398 µM.
In the case of `COc1nc2c(C(O)(CCN(C)C)c3cccs3)cc(Br)cc2cc1Cc1ccccc1` (centres unmarked) [Compound 15], the IC50 was 7.94 µM.
Take `COc1nc2c(C(O)(CCN(C)C)c3cccs3)cc(C)cc2cc1Cc1ccccc1` (centres unmarked) [Compound 16]: the IC50 was 1.58 µM.
`COc1nc2cccc(C(O)(CCN(C)C)c3cccc4ccccc34)c2cc1-c1ccccc1` (centres unmarked) [Compound 18]: the IC50 was 1.58 µM.
Regarding `COc1nc2cccc(C(O)(CCN(C)C)c3ccc4ccccc4c3)c2cc1-c1ccccc1` (centres unmarked) [Compound 19], the IC50 is 7.94 µM.
Take `COc1nc2cccc(C(O)(CCN(C)C)c3ccccc3)c2cc1-c1ccccc1` (centres unmarked) [Compound 20]: the IC50 is 31.6 µM.
Consider `COc1nc2cccc(C(O)(CCN(C)C)c3ccco3)c2cc1-c1ccccc1` (centres unmarked) [Compound 21], for which the IC50 was 31.6 µM.
On to `COc1nc2c(C(O)(CCN(C)C)c3ccco3)cc(Br)cc2cc1-c1ccccc1` (centres unmarked) [Compound 26], for which the IC50 is 2 µM.
Turning to `COc1cc(-c2ccccc2)c2cc(C(O)(CCN(C)C)c3ccco3)ccc2n1` (centres unmarked) [Compound 29], the IC50 is 31.6 µM.
For `CN(C)CCC(O)(Cc1c(Cc2ccccc2)c(N2CCOCC2)nc2ccccc12)c1cc(F)cc(F)c1` (centres unmarked) [Compound 31], the IC50 is 1.26 µM.
For `CN(C)CCC(O)(c1cc(F)cc(F)c1)c1cccc2nc(N3CCN(C)CC3)c(-c3ccccc3)cc12` (centres unmarked) [Compound 32], the IC50 is 10 µM.
With `CN(C)CCC(O)(c1cc(F)cc(F)c1)c1cccc2nc(-n3cncn3)c(-c3ccccc3)cc12` (centres unmarked) [Compound 33], the IC50 was 31.6 µM.
On the same count and under the same terms, for `CN(C)CCC(O)(c1cccs1)c1cc(Br)cc2cc(Cc3ccccc3)c(N3CCN(C)CC3)nc12` (centres unmarked) [Compound 35] the value was 1.58 µM.
The same measure, in the same setting: for `CN(C)CCC(O)(c1cccc2ccccc12)c1cccc2nc(N3CCN(C)CC3)c(-c3ccccc3)cc12` (centres unmarked) [Compound 36] the value was 10 µM.
Consider `CN(C)CCC(O)(c1ccccc1)c1cccc2nc(N3CCN(C)CC3)c(-c3ccccc3)cc12` (centres unmarked) [Compound 37], for which the IC50 is 79.4 µM.
Consider `CN(C)CCC(O)(Cc1c(-c2ccccc2)c(-c2ccco2)nc2ccccc12)c1cc(F)cc(F)c1` (centres unmarked) [Compound 39], for which the IC50 is 1.26 µM.
For the compound `CN(C)CCC(O)(Cc1c(Cc2ccccc2)c(-c2ccsc2)nc2ccccc12)c1cc(F)cc(F)c1` (centres unmarked) [Compound 40], the IC50 is 7.94 µM.
Take `CN(C)CCC(O)(Cc1c(-c2ccccc2)c(-c2ccccc2)nc2ccccc12)c1cc(F)cc(F)c1` (centres unmarked) [Compound 41]: the IC50 was 31.6 µM.
As for `CN(C)CCC(O)(Cc1c(Cc2ccccc2)c(-c2ccccc2)nc2ccccc12)c1cc(F)cc(F)c1` (centres unmarked) [Compound 42], the IC50 is 39.8 µM.
As for `Cc1cc(-c2ccccc2)c2cc(C(O)(CCN(C)C)c3ccccc3)ccc2n1` (centres unmarked) [Compound 43], the IC50 was 12.6 µM.
Still for that read-out and setting: for `CN(C)CCC(O)(c1cc(F)cc(F)c1)c1cc(Br)cc2cc(-c3ccccc3)c(-n3ccnc3)nc12` (centres unmarked) [Compound 44] the value was 1.26 µM; for `CN(C)CCC(O)(c1cccc2ccccc12)c1cc(Br)cc2cc(Cc3ccccc3)c(N3CCN(Cc4ccccc4)CC3)nc12` (centres unmarked) [Compound 47], 0.398 µM.
The same measure, in the same setting: for `CN(C)CCC(O)(c1cccc2ccccc12)c1cc(Br)cc2cc(Cc3ccccc3)c(N3CCN(c4n[nH]c5ccccc45)CC3)nc12` (centres unmarked) [Compound 48] the value was 0.631 µM.
On to `CN(C)CCC(O)(c1cccc2ccccc12)c1cc(Br)cc2cc(Cc3ccccc3)c(N3CCc4ccccc4C3)nc12` (centres unmarked) [Compound 50], for which the IC50 is 0.794 µM.
As to `CN(C)CCC(O)(c1cccc2ccccc12)c1cc(Br)cc2cc(Cc3ccccc3)c(N3CCOCC3)nc12` (centres unmarked) [Compound 51], the IC50 is 1 µM.
For the compound `CN(C)CCC(O)(c1cccc2ccccc12)c1cc(Br)cc2cc(Cc3ccccc3)c(N3CCCC3)nc12` (centres unmarked) [Compound 52], the IC50 was 1 µM.
Take `CN(C)CCC(O)(c1cccs1)c1cc(Br)cc2cc(Cc3ccccc3)c(-n3ccnc3)nc12` (centres unmarked) [Compound 53]: the IC50 was 1.26 µM.
Take `CN(C)CCC(O)(c1cccc2ccccc12)c1cc(Br)cc2cc(Cc3ccccc3)c(N3CCN(C(=O)c4ccco4)CC3)nc12` (centres unmarked) [Compound 54]: the IC50 is 1.26 µM.
`CN(C)CCC(O)(c1ccccc1)c1cc2nc(N3CCN(Cc4ccccc4)CC3)c(Cc3ccccc3)cc2cc1Br` (centres unmarked) [Compound 55]: the IC50 was 1.26 µM.
As to `CN(C)CCC(O)(c1ccccc1)c1cc2nc(N3CCN(Cc4ccc5c(c4)OCO5)CC3)c(Cc3ccccc3)cc2cc1Br` (centres unmarked) [Compound 60], the IC50 was 2 µM.
Still for that read-out and setting: for `CN(C)CCC(O)(c1ccco1)c1cc(Br)cc2cc(-c3ccccc3)c(-n3ccnc3)nc12` (centres unmarked) [Compound 63] the value was 6.31 µM; for `CN(C)CCC(O)(c1ccccc1)c1cc(Br)cc2cc(-c3ccccc3)c(-n3cncn3)nc12` (centres unmarked) [Compound 66], 12.6 µM; for `CN(C)CCC(O)(c1ccccc1)c1cc2nc(N(C)C)c(Cc3ccccc3)cc2cc1Br` (centres unmarked) [Compound 67], 20 µM.
On to `CN(C)CCC(O)(c1ccco1)c1cc(Br)cc2cc(-c3ccccc3)c(-n3cncn3)nc12` (centres unmarked) [Compound 68], for which the IC50 was 31.6 µM.
Regarding `CN(C)CCC(O)(c1cccc2ccccc12)c1cc(Br)cc2cc(Cc3ccccc3)c(N3CCN(C(c4ccccc4)c4ccccc4)CC3)nc12` (centres unmarked) [Compound 69], the IC50 is 39.8 µM.
Take `CN(C)CCC(O)(c1ccccc1)c1ccc2nc(-c3cccnc3)cc(-c3ccccc3)c2c1` (centres unmarked) [Compound 71]: the IC50 is 1.58 µM.
With `CN(C)CCC(O)(c1ccc2nc(-c3cccnc3)cc(-c3ccccc3)c2c1)c1ccco1` (centres unmarked) [Compound 72], the IC50 was 6.31 µM.
`CN(C)CCC(O)(c1cccs1)c1cc(Br)cc2cc(Cc3ccccc3)c(N(C)C)nc12` (centres unmarked) [Compound 73]: the IC50 is 1.58 µM.
Consider `CN(C)CCC(O)(c1ccccc1)c1cc(-c2cccnc2)cc2cc(-c3ccccc3)c(-c3cccnc3)nc12` (centres unmarked) [Compound 76], for which the IC50 was 1.58 µM.
